Here are results for 2 compounds from patent US20250241994A1, “PHARMACEUTICAL FORMULATION OF GLUCAGON-LIKE PEPTIDE -1 RECEPTOR AGONIST PEPTIDE FOR SUBLINGUAL DELIVERY” (Immunwork Inc., priority 2024, published 2025).

Values after ≈ are worked out from the molar mass of the structure shown.

The conditions of data set [1]: semaglutide: based on the known highest dosage form for subcutaneous injection; cited from earlier work.
Data set [2] can be described thus: Estimated bioavailability of sublingual relative to subcutaneous delivery (blood glucose lowering at 24 h). Set-up: species or system db/db mice. Conditions: male, db/db, mouse, in vivo, bioavailability of sublingually administered GLP-1 RA-P relative to subcutaneous administration.
Text: The term “bioavailability of GLP-1 RA-P” as used herein refers to an estimated bioavailability of a sublingually administered GLP-1 RA-P in relative to that achieved by subcutaneous injection. Accordingly, the “bioavailability of GLP-1 RA-P” is expressed as a percentage of bioavailability achieves by subcutaneous injected GLP-1 RA-P. To estimate the bioavailability of sublingual delivery in relative to subcutaneous delivery in db/db mice, the blood glucose-lowering effects of two sublingual doses of varying amounts were compared with one subcutaneous dose of a specific amount at the 24-hour time point (just before the third sublingual dose). […] By comparing the combined effect of the two sublingual doses to the subcutaneous dose, the relative bioavailability is estimated.
Further, blood glucose levels in db/db mice are highly sensitive to changes in GLP-1 RA-P drug concentrations, making glucose measurements a reliable indicator of the drug's availability in the bloodstream. In the experiments described in this study, the db/db mouse model was used to evaluate the efficiency of sublingual drug delivery, estimate bioavailability via sublingual versus subcutaneous administration, and examine the cumulative effects of repeated sublingual dosing.
For these experiments, 30 male db/db mice, aged 6 weeks and weighing 35-40 g, were used. […]

For `CC[C@H](C)[C@H](NC(=O)[C@H](Cc1ccccc1)NC(=O)[C@H](CCC(=O)O)NC(=O)[C@H](CCCCNC(=O)COCCOCCNC(=O)COCCOCCNC(=O)CC[C@H](NC(=O)CCCCCCCCCCCCCCCCC(=O)O)C(=O)O)NC(=O)[C@H](C)NC(=O)[C@H](C)NC(=O)[C@H](CCC(N)=O)NC(=O)CNC(=O)[C@H](CCC(=O)O)NC(=O)[C@H](CC(C)C)NC(=O)[C@H](Cc1ccc(O)cc1)NC(=O)[C@H](CO)NC(=O)[C@H](CO)NC(=O)[C@@H](NC(=O)[C@H](CC(=O)O)NC(=O)[C@H](CO)NC(=O)[C@@H](NC(=O)[C@H](Cc1ccccc1)NC(=O)[C@@H](NC(=O)CNC(=O)[C@H](CCC(=O)O)NC(=O)C(C)(C)NC(=O)[C@@H](N)Cc1cnc[nH]1)[C@@H](C)O)[C@@H](C)O)C(C)C)C(=O)N[C@@H](C)C(=O)N[C@@H](Cc1c[nH]c2ccccc12)C(=O)N[C@@H](CC(C)C)C(=O)N[C@H](C(=O)N[C@@H](CCCNC(=N)N)C(=O)NCC(=O)N[C@@H](CCCNC(=N)N)C(=O)NCC(=O)O)C(C)C` [semaglutide], the “solubility in aqueous buffer” value in data set [1] is 3200 µg/mL (≈ 778 µM). Take `CC[C@H](C)[C@H](NC(=O)[C@H](CC(C)C)NC(=O)[C@H](Cc1c[nH]c2ccccc12)NC(=O)[C@H](CCC(N)=O)NC(=O)[C@@H](NC(=O)[C@H](Cc1ccccc1)NC(=O)[C@H](C)NC(=O)[C@H](CCCCNC(=O)COCCOCCNC(=O)COCCOCCNC(=O)CC[C@H](NC(=O)CCCCCCCCCCCCCCCCCCC(=O)O)C(=O)O)NC(=O)[C@H](CCC(N)=O)NC(=O)[C@H](C)NC(=O)[C@@H](NC(=O)[C@H](CCCCN)NC(=O)[C@H](CC(=O)O)NC(=O)[C@H](CC(C)C)NC(=O)C(C)(C)NC(=O)[C@@H](NC(=O)[C@H](CO)NC(=O)[C@H](Cc1ccc(O)cc1)NC(=O)[C@H](CC(=O)O)NC(=O)[C@H](CO)NC(=O)[C@@H](NC(=O)[C@H](Cc1ccccc1)NC(=O)[C@@H](NC(=O)CNC(=O)[C@H](CCC(=O)O)NC(=O)C(C)(C)NC(=O)[C@@H](N)Cc1ccc(O)cc1)[C@@H](C)O)[C@@H](C)O)[C@@H](C)CC)[C@@H](C)CC)C(C)C)C(=O)N[C@@H](C)C(=O)NCC(=O)NCC(=O)N1CCC[C@H]1C(=O)N[C@@H](CO)C(=O)N[C@@H](CO)C(=O)NCC(=O)N[C@@H](C)C(=O)N1CCC[C@H]1C(=O)N1CCC[C@H]1C(=O)N1CCC[C@H]1C(=O)N[C@@H](CO)C(N)=O` [tirzepatide]: the bioavailability at 24 h in data set [2] was 10%.
